Test results: patent US20130115356A1, “SWEETENER COMPOSITION” (FIRMENICH SA, priority 2010, published 2013)

Legend:
[1] = Panel evaluation of a carbonated lemon beverage formulation; format: in vivo, human; conditions: carbonated lemon beverage with stevia
Description: A lemon beverage syrup base was prepared by mixing together the following ingredients:
To a 1 litre portion of the syrup base was added 6 g of sclareolide, ex Avoca (1% w/v ethanolic solution). The mixture was then dilute with 5 litres of carbonated water to provide sclareolide at 10 ppm. This is referred to as sample 6.
To another 1 litre portion of the syrup base was added 0.12 g of sclareolide, ex Avoca (1% w/v ethanolic solution). The mixture was then dilute with 5 litres of carbonated water to provide sclareolide at 0.2 ppm. This is referred to as sample 7.
A third portion of the syrup base was used as is (i.e. with no sclareolide present) and was diluted with 5 litres of carbonated water. This is referred to as sample 8.
30 panellists were then asked to evaluate (i) sample 6 and sample 8 and (ii) sample 7 and sample 8 in a balanced, randomized blind test for Overall Flavor, Sweetness, Tartness/Acidity, Lingering Aftertaste, Metallic/Bitterness, Off-note aftertaste and Liquorice Flavor on an 11-point continuous intensity scale where 0=Imperceptible and 10=Extremely Pronounced.

[2] = Trained panel taste evaluation of lemon ice tea beverages; format: in vivo, human; conditions: conclusion from Table 3, sclareolide 0.075 wt % in Base B
Description: Lemon ice tea beverages were prepared with the following ingredients in the amounts shown (grams). Base A is the full sucrose product (i.e. control sample). Base B is the same as base A except with 50% reduced sucrose and additional stevia sweetener in to provide the same level of sweetness.
The ingredients for each base were mixed together until fully dissolved.
The samples were then evaluated by a trained panel of 10 people. Tasting was performed by a blind and balanced presentation order of the samples with the intensity of acidity, bitterness, sweetness and liquorice all being assessed on a scale of 0 to 5 where 0 represents not perceptible and 5 represents very intense.
The scores were averaged and an analysis of variance was performed to identify significant differences between the samples.

SMILES: CC1(C)CCC[C@]2(C)[C@H]3CC(=O)O[C@]3(C)CC[C@@H]12 [sclareolide]
- masking effect ([1]; sclareolide at 0.2 ppm): little or no masking effect observed
- masking liquorice notes ([1]; sclareolide at 10 ppm): not achieved
- effect on the acidity, bitterness or sweetness of the product [2]: does not appear to have a significant effect
- effect on the liquorice taste of the product [2]: significantly reduces the liquorice taste
